From patent publication US9655965B2, “Radiosensitizer compounds for use in combination with radiation” (priority 2013, dated 2017)
Entries after “also recorded” stand apart in the source; their conditions may differ.

Assays:
[1] = tested on: human cervical cancer (HeLa) cells; experiment: In vitro radiosensitizing effect, MTT assay 6 days after X-ray, HeLa; assay type: cell-based; conditions: 12-hr treatment, MTT at 6 days
Description: (§1) Dibromo-diamino-benzene (Dibromo-phenylenediamine, Compound B) was obtained from TCI—America. Diiodo-diaminobenzene (Compound C) were synthesized, purified and crystallized in our laboratory, and the structures and purity were examined by NMR and mass spectrometry. MEM and fetal bovine serum (FBS), penicillin G and streptomycin were obtained from Hyclone Laboratories (UT, USA). Stock solution of cisplatin was freshly prepared in ultrapure water or saline, and stock solutions of Compounds A, B, C, D were prepared in pure ethanol, where the final concentration of ethanol was ≦1% when treated to cells.
(§2) A human skin diploid fibroblast (GM05757 cell line) was obtained from the Coriell Cell Repository directly, while the human cervical cancer cell line (HeLa, ATCC#: CCL-2; or ME-180), human ovarian cancer cell line (NIH:OVCAR-3, ATCC#: HTB-161) and human lung cancer cell line (A549, ATCC#: CCL-185™), together with RPMI 1640, F-12K, McCoy's 5 A and L-15 culture media, were obtained from the American Type Culture Collection (ATCC) directly. Fetal bovine serum (FBS) was obtained from Hyclone Laboratories (UT, USA). The GM05757 normal cells and HeLa cells were cultivated with MEM (Hyclone) supplemented with 10% FBS, 100 units/mL penicillin G and 100 μg/mL streptomycin (Hyclone). The complete growth media for ME-180, NIH:OVCAR-3, A549 and MDA-MB-231 cells were the ATCC-formulated McCoy's 5 A Medium supplemented with 10% FBS, RPMI 1640 medium with 20%, F-12K medium with 10% FBS, and L-15 Medium (Leibovitz) with 10% FBS, respectively. The cells were maintained at 37° C. in a humidified atmosphere containing 5% CO2.
(§3) The radiosensitizing effects of RSCs on cell viability were determined by the 3-[4,5-dimethylthiazol-2-yl]-2,5-diphenyl tetrazoliumbromide (MTT) assay. Cells were cultured in 96-well plates (5×10^3 cells/well) for 24 h. […] The surviving fraction was determined by measuring the absorbance at 540 nm (570 nm for SDS solubilization) using a Multiskan Spectrum UV/Vis microplate reader (Thermo Scientific), which is directly proportional to the number of viable cells.

[2] = tested on: cisplatin-resistant human ovarian cancer (HTB-161) cells; experiment: In vitro radiosensitizing effect, MTT assay 6 days after X-ray, HTB-161; assay type: cell-based; conditions: MTT at 6 days
Description: as §1, with “cells. […]” for “cells.”
as §3, with “assay.” for “assay. Cells were cultured in 96-well plates (5×10^3 cells/well) for 24 h.”

[3] = tested on: various human cancer cells; experiment: In vitro radiosensitizing effects in various human cancer cells (FIG. 14-21); assay type: cell-based; conditions: 12 hr treatment, then various doses of 225 keV X-ray
Description: as §1, §2
(§4) The radiosensitizing effects of RSCs on cell viability were determined by the 3-[4,5-dimethylthiazol-2-yl]-2,5-diphenyl tetrazoliumbromide (MTT) assay. Cells were cultured in 96-well plates (5×10^3 cells/well) for 24 h. The culture medium was replaced by fresh culture medium and incubated for 12 h with varying drug concentrations. The cells were then irradiated by 225 kV X-ray (PRECISION X-RAD IR 225) at a dose rate of 2 Gy/min with various X-ray doses. After irradiation, the cells were incubated for 6 days. The MTT assay of cell viability was then conducted. Briefly, 100 μl new medium without phenol red containing 1.2 mM MTT (sigma) (i.e., adding 10 μl 12 mM MTT stock solution in PBS) were added to each well and incubated for 4 h. The medium was then removed, and the formazan crystals solubilized by 100 μL/well DMSO (or alternatively by 100 μl/well SDS and incubated for another 4 h). The surviving fraction was determined by measuring the absorbance at 540 nm (570 nm for SDS solubilization) using a Multiskan Spectrum UV/Vis microplate reader (Thermo Scientific), which is directly proportional to the number of viable cells.

[4] = tested on: human cervical cancer (ME-180) cells; experiment: In vitro radiosensitizing effect, MTT assay 6 days after X-ray, ME-180; assay type: cell-based
Description: as §1, §2, §4

[5] = tested on: human normal cells (GM05757); experiment: In vitro radiation-induced toxicity in human normal cells, MTT assay 12 days after X-ray; assay type: cell-based; conditions: GM05757, 12-hr treatment, then 0-10 Gy 225 keV X-ray, MTT at 12 days
Description: as §1, with “TCI-America.” for “TCI—America.”
(§5) A human skin diploid fibroblast (GM05757 cell line) was obtained from the Coriell Cell Repository directly. Fetal bovine serum (FBS) was obtained from Hyclone Laboratories (UT, USA). The GM05757 normal cells were cultivated with MEM (Hyclone) supplemented with 10% FBS, 100 units/mL penicillin G and 100 μg/mL streptomycin (Hyclone). The cells were maintained at 37° C. in a humidified atmosphere containing 5% CO2.
as §4, with “for 12” for “for 6”, “h. […]” for “h. The medium was then removed, and the formazan crystals solubilized by 100 μL/well DMSO (or alternatively by 100 μl/well SDS and incubated for another 4 h).”

[6] = tested on: human normal cells (GM05757); experiment: In vitro toxicity in human normal cells, 72-hr treatment, MTT assay; assay type: cell-based; conditions: GM05757, 72-hr treatment, without ionizing radiation; for toxicity toward human normal cells: 0-50 μM cisplatin, 0-200 μM compounds
Description: as §1, with “TCI-America.” for “TCI—America.”
as §5
as §4, with “for 72” for “for 12”, “concentrations.” for “concentrations. The cells were then irradiated by 225 kV X-ray (PRECISION X-RAD IR 225) at a dose rate of 2 Gy/min with various X-ray doses. After irradiation, the cells were incubated for 6 days.”

[7] = [Lu, 2010]; cited from earlier work
[8] = tested on: mice; conditions: literature; cited from earlier work

Row | Compound | enhancement of radiosensitivity of cancer cells to X-ray ([1]; 0-10 Gy 225 keV X-ray) | killing of cancer cells in combination with radiation [3] | radiation toxicity in human normal cells [5] | toxicity toward human normal cells [6] | also measured
1 | bromo-(1,2-)diamino-benzene [Compound D] | significant enhancement in the radiosensitivity | enhanced the killing of cancer cells in a radiation dose dependent manner and in synergy with radiation; also recorded: enhances the effectiveness of ionizing radiation to kill tumor cells | – | – | enhancement of radiosensitivity of cisplatin-resistant cancer cells to X-ray ([2]; HTB-161, 0-7.5 Gy 225 keV X-ray): significant enhancement in the radiosensitivity; enhancement of radiosensitivity of cancer cells to X-ray ([4]; ME-180, 12-hr treatment, 0-10 Gy 225 keV X-ray, MTT at 6 days): significant enhancement in the radiosensitivity; killing of cancer cells ([4]; ME-180, 50 Gy x-ray with about 100 μM compound, about 20% survived without any RSC): early all cancer cells were killed
2 | Nc1cc(Cl)c(Cl)cc1N [Compound A, 4,5-dichloro-1,2-phenylenediamine] | significant enhancement in the radiosensitivity | enhanced the killing of cancer cells in a radiation dose dependent manner and in synergy with radiation; also recorded: enhances the effectiveness of ionizing radiation to kill tumor cells | no radiation toxicity | essentially no toxicity; also recorded: little toxicity up to 200 μM | enhancement of radiosensitivity of cisplatin-resistant cancer cells to X-ray ([2]; HTB-161, 12-hr treatment, 0-10 Gy 225 keV X-ray): significant enhancement in the radiosensitivity
3 | O=c1[nH]c(=O)n([C@H]2C[C@H](O)[C@@H](CO)O2)cc1I [IdU, iododeoxyuridine] | – | – | – | – | DET reaction with epre− among halopyrimidines [7]: strongest DET reaction among the halopyrimidines
4 | Nc1cc(I)c(I)cc1N [Compound C, 4,5-diiodo-1,2-phenylenediamine] | – | enhanced the killing of cancer cells in a radiation dose dependent manner and in synergy with radiation; also recorded: enhances the effectiveness of ionizing radiation to kill tumor cells | – | essentially no toxicity; also recorded: little toxicity up to 200 μM | enhancement of radiosensitivity of cancer cells to X-ray ([1]; 0 and 20 Gy 225 keV X-ray): significant enhancement in the radiosensitivity
5 | cis-Pt(NH3)2Cl2 [cisplatin, reference compound] | – | – | essentially no radiation toxicity | highly toxic; also recorded: severe toxicity even at low concentrations of ≦30 μM | LD50 [8]: 13.5 mg/kg; IC50 ([6]; read-out: IC50 (cell survival rate 50% with respect to untreated cells)): ~10 µM
